{"source": "patent US6479458B1", "about": "“Targeting the reverse mode of the Na+/Ca2+ exchanger for the treatment of optic neuropathy associated with glaucoma and ischemic optic neuropathy” (Allergan, Inc., priority 2001, dated 2002)", "origin": "cited, not measured here", "key": {"[1]": {"tested_on": "sodium-calcium exchange"}, "[2]": {"tested_on": "Na+/Ca2+ exchanger", "settings": "variety of cell types including neurons"}}}
{"compound": "cyclosporin A", "values": [{"measurement": "inhibition of sodium-calcium exchange", "setting": "[1]", "result": "specific activity in the inhibition of sodium-calcium exchange"}]}
{"compound": "CS(=O)(=O)O.N=C(N)SCCc1ccc(OCc2ccc([N+](=O)[O-])cc2)cc1", "note": "[KB-R743]", "values": [{"measurement": "block of the reverse mode of the Na+/Ca2+ exchanger", "setting": "[2]", "result": "preferentially block the reverse mode"}]}
